This note sets out measurements from patent publication US20190248834A1, “ENDOMORPHIN-2, TETRAPEPTIDE DERIVATIVES THEREOF, AND USES THEREOF” (priority 2016, published 2019).

Non-standard residues stand in square brackets, D forms with d. pGlu = O=C1CC[C@@H](C(=O)O)N1 Some results are limits rather than exact numbers.

Common to all, as to assay type: in vivo, human
For assay [1], the system named is psoriatic arthritis in the joints of both feet. In words: Example 62: analgesic efficacy of psoriatic arthritis, feet, topical. As to conditions: 1% (w/v) in WEP442, topical. As for the experimental part: A subject with plague psoriasis had painful psoriatic arthritis in the joints of both feet for the past 10-12 years. Topical application of a composition containing 1% (w/v) of N-Ac-Tyr-Pro-Phe-Phe-NH2 (SEQ ID NO: 23) in WEP442 relieved the pain so that it was undetectable for 6-8 hours. Daily topical applications of the formulation for 5 days provided the same relief.

Another assay deals with severe frontal headaches. In words: Example 47: analgesic effect on severe headaches, topical. From the text:
A subject had severe frontal headaches occurring every 5-10 days.

Another assay deals with herpes zoster pain. Nature of the assay: Example 6: analgesic effect on viral infection, topical. From the text:
A subject had herpes zoster on a temporal branch of the tri-geminal nerve with severe clinical pain involving the areas of left temporal, left forehead, left scalp, left neck, and left ear canal. Touching the left anterior scalp hair provoked severe pain.
The subject topically administered an anhydrous composition containing 0.5% (w/v) N-Ac-Tyr-Pro-Phe-Phe-NH2 (SEQ ID NO: 23) in EP73, formulated as described in Example 2, by applying a few drops to wet the skin surface. […] The pain relief lasted for up to 1 hour. Multiple repeated topical applications of the anhydrous composition containing 0.5% (w/v) N-Ac-Tyr-Pro-Phe-Phe-NH2 (SEQ ID NO: 23) in EP73 gave the same analgesic result with 4+ relief of pain according to clinical evaluation, and also for longer periods of up to 6 hours.

Assay [2] deals with knee and lower back pain from osteoarthritis. Nature of the assay: Example 14: analgesic effect on osteoarthritic knees and lower back, topical. The settings on record: 1% (w/v) in WEP442, about 60 ml to whole body. As for the experimental part:
A subject had severe knee pain for many years and lower back pain for approximately one year from osteoarthritis, and in both cases, the pain was partially relieved by oral opiates. One day before bedtime, the subject took a low dose of an opiate, but the next morning, they still developed substantial pain in the knees and moderate pain in the lower back.
The subject topically applied approximately 60 ml of a solution composition containing 1% (w/v) N-Ac-Tyr-Pro-Phe-Phe-NH2 (SEQ ID NO: 23) in WEP442 to the whole body, excluding only the scalp, face and soles. […] This lowered degree of pain was maintained for about 7 hours.

The next assay relates to pain at injection sites. Nature of the assay: Example 39: analgesic effect on pain at site of subcutaneous injection of hyaluronic acid, topical. As to conditions: 1% (w/v) in WEP442, topical. From the text: A subject, experienced substantial pain in the zygomatic-facial areas, sites injected subcutaneously with a hyaluronic acid product (Restylane) six hours earlier for the cosmetic purpose of plumping up the skin.

The test system of assay [3] is severe migraine headaches. In words: Example 41: analgesic effect on migraine headaches, topical. From the text:
A subject with severe migraine headaches associated with nausea and vomiting that had been occurring 3-4 times per month over the past 9-10 years, topically applied a composition containing 1% (w/v) of N-Ac-Tyr-Pro-Phe-Phe-NH2 (SEQ ID NO: 23) in WEP442 to the forehead, brow, eyelids and temporal areas at the onset of headaches. […] The frequency of episodes diminished over the next two months, and the subject reported that they experienced no headaches for at least a 5 week period.

The subject of the next assay is right shoulder pain. In words: Example 77: analgesic effect on pain from shoulder strain, topical. As to conditions: 0.5% (w/v) in WEP442, topical. As for the experimental part: A subject, presented with right shoulder pain for a duration of 5 days, which developed after carrying a very heavy grocery bag for several city blocks. The pain was increased by their attempts to lift their arm to an elevated position, and further increased from rotational arm movements. […] Such relief lasted for about 6 hours, at which time re-application provided the same relief.

In assay [4] the test system is pain in the muscles of the neck. Nature of the assay: Example 57: analgesic effect on stress pain in muscles of the neck, topical. The settings on record: 0.6% (w/v) in WEP442, topical. As for the experimental part: A farmer suffered substantial pain in the muscles of their neck the day after ploughing a field for several hours. During that time, they had almost constantly strained their neck muscles looking backward to monitor the performance of the plough behind. The pain was such that it disabled them from turning their head even slightly. […] Reapplication of the solution at that time again relieved the pain for another 4 hours. With repeated applications, they were able to perform usual farm maintenance work for the entire day. After a night's rest, the pain subsided spontaneously.

The subject of another assay is headache. In words: Example 44: analgesic effect on headache, topical. From the text: A subject, experienced a headache that began on the right temporofrontal area. Within about a half hour the headache pain area expanded to include the left temporofrontal area and both orbital areas. The intensity of pain increased simultaneously to a degree that caused them to remove themself from their sedentary occupation. Available to them was a composition containing 1% (w/v) of N-Pg-Tyr-Pro-Phe-Phe-NH2 (SEQ ID NO: 44) in WEP442, which they topically applied to all the above areas, keeping their eyes closed until the lids dried. Pain relief was detected after about 5 minutes, at which time a second application of the solution was made. Within another 5 minutes, pain relief was substantial, allowing them to return to their occupation.

In assay [5] the test system is acute right temporal nauseating headache. In words: Example 49: topical treatment of severe right temporal headache. The settings on record: 1% (w/v) in WEP442, topical. From the text:
They were given, by a nearby companion, a solution composition containing 1% (w/v) of N-Pg-Tyr-Pro-Phe-Phe-NH2 (SEQ ID NO: 44) in WEP442, which they topically applied to the right temporal area, right closed eyelids, entire forehead and right eyebrow.

Assay [6] deals with very severe osteoarthritis of the knees. In words: Example 45: analgesic effect on osteoarthritic knees, topical lotion. The settings on record: 1% (w/w) lotion. As for the experimental part:
One gram of the tetrapeptide derivative N-Pg-Tyr-Pro-Phe-Phe-NH2(SEQ ID NO: 44) was dissolved in propylene glycol (33 ml) and diisopropyl adipate (33 ml), and the resultant solution was mixed with an oil-in-water emulsion (33 g) to yield a light lotion containing 1% (w/w) of […] (SEQ ID NO: 44). This lotion was generously applied topically to the knees and lower legs of a subject, having very severe osteoarthritis of the knees for many years. After topical application of the lotion to the lower legs and knees, plastic film was applied to cover the treated areas. The plastic film was removed 8 hours later. […] Pain began to return after about 4 days.

The mark [7] stands for this setting: 0.5% (w/v) in EP73, multiple repeated topical applications.

With `CC(=O)N[C@@H](Cc1ccc(O)cc1)C(=O)N1CCC[C@H]1C(=O)N[C@@H](Cc1ccccc1)C(=O)N[C@@H](Cc1ccccc1)C(N)=O` [N-Ac-Tyr-Pro-Phe-Phe-NH2], the “duration of pain relief” value is 6 to 8 h in assay [1]; “up to 6 hours” with herpes zoster pain (setting [7]); “up to 1 hour” in the assay with herpes zoster pain (0.5% (w/v) in EP73, topical, first application). The pain relief result in assay [1] is “undetectable”; with severe frontal headaches (1% (w/v) in WEP442, topical at onset), “completely interrupted all pain”; with herpes zoster pain (0.5% (w/v) in EP73, topical), “pain disappeared completely”; with pain at injection sites, “completely relieved the pain”; in assay [3] (1% (w/v) in WEP442, topical at onset of headaches), “Complete relief of pain and other symptoms”. Moreover, the “time to pain relief” value was 3 to 4 min in the assay on severe frontal headaches (1% (w/v) in WEP442, topical); “Within about a minute” in the assay with herpes zoster pain (0.5% (w/v) in EP73, topical); no more than 1 min in the assay with pain at injection sites; 2 to 3 min in [3] (1% (w/v) in WEP442, topical). For the same molecule, in the assay with herpes zoster pain (setting [7]), the “relief of pain according to clinical evaluation” value is given as 4+ (4+ (90-100%): complete relief or eradication of pain for more than 4 hours). Further, the “duration of lowered degree of pain” value in assay [2] is listed as “about 7 hours”. For the same molecule, the “pain in both knees and the lower back” value in assay [2] (after 4 hours) is “diminished to very low level”; in assay [2] (over the next 2 hours) it was “diminished substantially”. Also, the recurrence entry in the assay on pain at injection sites is “did not return”. Also, the period without headaches in assay [3] (1% (w/v) in WEP442, topical, over the next two months) is no less than 5 week.
Take “N-Pg-Tyr-Pro-Phe-Phe-NH2 ([pGlu]YPFF-NH2; SMILES NC(=O)[C@H](Cc1ccccc1)NC(=O)[C@H](Cc1ccccc1)NC(=O)[C@@H]1CCCN1C(=O)[C@H](Cc1ccc(O)cc1)NC(=O)[C@@H]1CCC(=O)N1)”: the “duration of pain relief” value in the assay on right shoulder pain is on record as “about 6 hours”; in assay [4], “about 4 hours”. Besides, the pain relief result is reported as “rapid, complete relief of pain” in the assay with right shoulder pain; “almost completely relieved” in [4]; “Total relief of pain” with headache (1% (w/v) in WEP442, after second application); “the headache subsided completely” in assay [5]; “pain had subsided almost completely” in [6] (under plastic film 8 hours, daily for 3 days). Further, the “time to detected pain relief” value with headache (1% (w/v) in WEP442, first topical application) was “about 5 minutes”. Further, the recurrence entry in the assay with headache (1% (w/v) in WEP442, topical) is recorded as “no recurrence of pain”; in assay [5] it was “did not return”. The “time to pain relief” value in assay [5] was 3 to 5 min. In assay [6], the “time to return of pain” value was “about 4 days”.
